Experimental data from PubChem BioAssay AID248 (DTP/NCI, 2004).
Several values for one entry are separate records, joined by “and”; a condition that tells them apart may be missing. Identical values can stand only once. Toxic doses and inconclusive results are not listed. Rule as the data show it: active = T/C of 150% or more; inactive = T/C below 125%.

Test system: L1210 leukemia ip in BDF1 mice, survival T/C
Experiment: NCI In Vivo Anticancer Drug Screen. Data for tumor model L1210 Leukemia (intraperitoneal) in B6D2F1 (BDF1) mice
Conditions: endpoint: mean survival time, higher = longer survival
Procedure, shortened: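 In this screen, tumor-bearing mice given compound are compared to those given vehicle, and their survival values are reported as a treated-to-control quotient.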

Measured: T/C

CCCNC(=O)Sc1ccc(Cl)cc1
inactive: dose: 12.5 mg/kg/injection, schedule: Q01DX001 (ip), vehicle: Klucel (hydroxypropylcellulose) (HPC) 100 % of control | dose: 12.5 mg/kg/injection, schedule: Q01DX009 (ip), vehicle: Klucel (hydroxypropylcellulose) (HPC) 95 % of control and 110 % of control | dose: 25.0 mg/kg/injection, schedule: Q01DX001 (ip), vehicle: Klucel (hydroxypropylcellulose) (HPC) 95 % of control | dose: 25.0 mg/kg/injection, schedule: Q01DX009 (ip), vehicle: Klucel (hydroxypropylcellulose) (HPC) 97 % of control and 106 % of control | dose: 50.0 mg/kg/injection, schedule: Q01DX001 (ip), vehicle: Klucel (hydroxypropylcellulose) (HPC) 94 % of control | dose: 50.0 mg/kg/injection, schedule: Q01DX009 (ip), vehicle: Klucel (hydroxypropylcellulose) (HPC) 98 % of control | dose: 100.0 mg/kg/injection, schedule: Q04DX002 (ip), vehicle: Klucel (hydroxypropylcellulose) (HPC) 96 % of control | dose: 200.0 mg/kg/injection, schedule: Q04DX002 (ip), vehicle: Klucel (hydroxypropylcellulose) (HPC) 93 % of control and 86 % of control

COc1cc2c(cc1O)C(Cc1ccc(OC)c(OC)c1)N(C)CC2 (stereo not drawn)
inactive: dose: 75.0 mg/kg/injection, schedule: Q01DX001 (ip), vehicle: other 93 % of control | dose: 150.0 mg/kg/injection, schedule: Q01DX001 (ip), vehicle: other 101 % of control

Nc1ccc(N=Nc2ccccc2)cc1[N+](=O)[O-]
inactive: dose: 100.0 mg/kg/injection, schedule: Q04DX003 (ip), vehicle: saline with Tween-80 98 % of control | dose: 200.0 mg/kg/injection, schedule: Q04DX003 (ip), vehicle: saline with Tween-80 96 % of control | dose: 400.0 mg/kg/injection, schedule: Q04DX003 (ip), vehicle: saline with Tween-80 94 % of control

CONC(=O)NC(=O)C1(c2ccccc2)CCCCC1
inactive: dose: 25.0 mg/kg/injection, schedule: Q01DX Z (ip), vehicle: carboxymethylcellulose (CMC) 96 % of control | dose: 50.0 mg/kg/injection, schedule: Q01DX Z (ip), vehicle: carboxymethylcellulose (CMC) 95 % of control | dose: 100.0 mg/kg/injection, schedule: Q01DX001 (ip), vehicle: saline 86 % of control | dose: 100.0 mg/kg/injection, schedule: Q01DX Z (ip), vehicle: carboxymethylcellulose (CMC) 95 % of control | dose: 200.0 mg/kg/injection, schedule: Q01DX001 (ip), vehicle: saline 100 % of control | dose: 200.0 mg/kg/injection, schedule: Q01DX Z (ip), vehicle: carboxymethylcellulose (CMC) 102 % of control | dose: 200.0 mg/kg/injection, schedule: Q01DX Z (ip), vehicle: methylcellulose (MC) 119 % of control | dose: 400.0 mg/kg/injection, schedule: Q01DX001 (ip), vehicle: saline 102 % of control | dose: 400.0 mg/kg/injection, schedule: Q01DX Z (ip), vehicle: carboxymethylcellulose (CMC) 96 % of control | dose: 400.0 mg/kg/injection, schedule: Q01DX Z (ip), vehicle: methylcellulose (MC) 112 % of control
